Assay results reported in paper PMC12444472, “BCI inhibits MKP3 by targeting the kinase-binding domain and disrupting ERK2 interaction” (The Journal of Biological Chemistry, 2025).

Experiments:
MKPX^KBD = target: T1, MKPX^KBD (Homo sapiens, UniProt Q16829); assay: NMR titration (1H-15N HSQC); assay type: binding; conditions: molar ratio 1:2
T1 construct: MKPX(1–140) (MKPX^KBD); made in house; host or cells: Escherichia coli BL21(DE3)
T1 sequence (Q16829 1-140 isoform Q16829-2): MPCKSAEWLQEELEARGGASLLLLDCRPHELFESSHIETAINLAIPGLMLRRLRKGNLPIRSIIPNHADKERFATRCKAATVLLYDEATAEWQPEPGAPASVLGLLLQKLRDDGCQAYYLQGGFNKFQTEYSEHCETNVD
Procedure: NMR data were collected at 298 K on a Bruker AVANCE NEO 800 MHz spectrometer (Bruker BioSpin) equipped with a ^1H&^19F/^13C/^15N TCI cryogenic probe. Backbone resonances of MKP3^1–154 were assigned using 2D/3D experiments, including 2D ^1H–^15N HSQC and 3D ^1H/^13C/^15N CBCA(CO)NH, HNCACB, HNCO, and HN(CA)CO, performed with uniformly ^13C/^15N labeled protein at a final concentration of 0.39 mM in buffer containing 20 mM imidazole (pH 6.0), 100 mM NaCl, 5 mM DTT, 0.5 mM EDTA, and 5% (v/v) D2O. The buffer used for backbone resonance assignment was similar to that used for the previously reported NMR structure ([15]). NMR titration experiments were conducted using ^15N-labeled MKP3^1–154, MKP3^14–152, MKP3^204–350, MKP1^1–141, MKP2^5–159, MKPX^1–140, MKP4^1–143, and MKP5^139–287. 2D ^1H–^15N HSQC spectra of ^15N-labeled MKPs^KBD (0.1 mM) were acquired in the absence and presence of BCI (50 mM stock in DMSO-d6) in buffer containing 50 mM KH2PO4–K2HPO4 (pH 7.2), 100 mM KCl, 1 mM Tris(2-carboxyethyl)phosphine hydrochloride, 1 mM EDTA, and 5% (v/v) D2O. Control experiments, in which only the corresponding volume of DMSO-d6 was added to ^15N-labeled proteins, were performed to exclude possible effects of DMSO on the interactions. For ^15N T1 measurements, the relaxation delay times were set to 20 (×2), 100, 200 (×2), 300, 400, 600 (×2), 800, 1200, and 1600 ms. For ^15N T2 measurements, the delay times were 7.84, 15.68 (×2), 23.52, 31.36 (×2), 39.2, 47.04 (×2), 54.88, 62.72, 78.4, 94.08, and 109.76 ms. The relaxation rates R1 (1/T1) and R2 (1/T2) for each residue were determined by fitting the peak intensities from spectra acquired at the various delay times to a single-exponential decay function: I/I0 = exp(-R1,2·t), where I0 is the intensity at t = 0, and I is the intensity at a delay time t. Repeated measurements were used to estimate the uncertainties of the R1 and R2 values via Monte Carlo analysis. Heteronuclear steady-state ^1H–^15N NOE experiments were acquired in an interleaved mode, with 5 s of ^1H saturation for NOE build-up and 5 s of relaxation delay for the reference spectra. Repeated experiments were performed to estimate uncertainties, and the propagated error for each NOE value was calculated using the following equation: σNOE = NOE × ((σsat/Isat)^2+(σunsat/Iunsat)^2)^1/2, where σsat and σunsat are the SDs of the saturated and unsaturated spectra, respectively, and Isat and Iunsat are the corresponding signal intensities. NMR data were processed using TopSpin 4.1.1 (Bruker BioSpin) or NMRPipe ([54]) and analyzed with POKY ([55]).

MKP3 R85G = target: T2, MKP3 R85G (Homo sapiens, UniProt Q16828, R85G); assay: Phosphatase activity of MKP3 mutant toward pNPP with ERK2; assay type: biochemical; conditions: 1 µM enzyme, 1 µM ERK2, 8 mM pNPP, 2.5 μM BCI
T2 construct: MKP3(1–381) (MKP3^FL); made in house; host or cells: Escherichia coli BL21(DE3)
T2 sequence (Q16828 1-381 R85G): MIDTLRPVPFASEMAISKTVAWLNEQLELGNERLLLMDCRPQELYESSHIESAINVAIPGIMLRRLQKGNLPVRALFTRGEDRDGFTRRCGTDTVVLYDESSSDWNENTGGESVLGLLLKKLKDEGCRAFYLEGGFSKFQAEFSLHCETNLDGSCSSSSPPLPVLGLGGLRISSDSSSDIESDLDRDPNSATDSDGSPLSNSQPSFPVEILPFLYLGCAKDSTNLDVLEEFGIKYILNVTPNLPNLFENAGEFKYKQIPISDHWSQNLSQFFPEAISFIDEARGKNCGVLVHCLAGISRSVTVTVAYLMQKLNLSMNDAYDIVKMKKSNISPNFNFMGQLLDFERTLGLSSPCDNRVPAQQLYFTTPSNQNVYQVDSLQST
Procedure: The phosphatase activity of MKP3 toward pNPP was measured using continuous spectrophotometric assays, either in the absence or the presence of ERK2 at a 1:1 M ratio with MKP3. Experiments were conducted at 25 °C in a reaction mixture with a total volume of 1.8 ml, containing 50 mM Mops (pH 7.0), 100 mM NaCl, and 0.1 mM EDTA. MKP3 (1 μM) was preincubated with varying concentrations of the inhibitor BCI for 5 min before initiating the reaction by adding pNPP at concentrations ranging from 0 to 14 mM. Continuous absorbance changes were recorded using a PerkinElmer LAMBDA 45 spectrophotometer equipped with a magnetic stirrer in the cuvette holder. The production of p-nitrophenol was monitored at 410 nm using an extinction coefficient of 18,000 M^-1 cm^-1.
Figure S2. Inhibition of full-length MKP3 mutant activity by BCI. The phosphatase activities (v0) of full-length MKP3 and its mutants (E81G, R83G, R85G, R87G, and R89A) at 1 µM concentration were measured using continuous spectrophotometric assays with 8 mM pNPP as the substrate, in the presence of ERK2 (1 µM), either without or with 2.5 μM BCI. Data are presented as mean ± SD (n = 3). Reactions were performed at 25 °C in a total volume of 1.8 mL, in a buffer containing 50 mM MOPS (pH 7.0), 100 mM NaCl, and 0.1 mM EDTA.

MKP3 = conditions: cited from earlier work

perturbation of NMR spectrum (MKPX^KBD): Significant peak broadening
enzymatic activity upon BCI addition compared with MKP3^WT (MKP3 R85G): BCI inhibition comparable to MKP3^WT
SMILES: O=C1/C(=C/c2ccccc2)C(NC2CCCCC2)c2ccccc21 (stereo not shown) [BCI, (E)-2-benzylidene-3-(cyclohexylamino)-2,3-dihydro-1H-inden-1-one]
effect on ERK2-mediated MKP3 activity (MKP3; ERK2-stimulated, OMFP substrate): inhibits
effect on MKP3's basal activity toward OMFP (MKP3; basal, without ERK2): does not affect
